Values joined by “and” are separate entries in the source; they are usually repeats but may differ in a detail not shown here. Equal values may be shown once. “Also recorded” adds a separate entry of the source.

The target of one data set is T1, B. longum BSH (Bifidobacterium longum, UniProt Q9KK62).
T1 sequence (Q9KK62 1-317): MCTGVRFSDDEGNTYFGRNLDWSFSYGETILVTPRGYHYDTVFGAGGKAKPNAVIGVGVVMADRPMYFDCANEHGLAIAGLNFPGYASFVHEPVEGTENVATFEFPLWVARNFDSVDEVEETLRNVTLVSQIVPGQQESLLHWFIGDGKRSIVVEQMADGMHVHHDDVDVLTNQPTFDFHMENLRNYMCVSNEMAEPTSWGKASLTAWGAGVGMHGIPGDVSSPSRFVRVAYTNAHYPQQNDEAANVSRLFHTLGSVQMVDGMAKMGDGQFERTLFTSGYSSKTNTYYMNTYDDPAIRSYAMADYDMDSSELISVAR
The data set is described as follows: Inhibitor screen using rBSH, B. longum BSH (UPLC-MS % deconjugation). It counts as biochemical, Bifidobacterium longum SBT2928. The arrangement: His6 (C); made in house; host or cells: Escherichia coli (as for the B. theta enzyme). The conditions noted are these: 100 μM inhibitor; 2 h, 5 h and 21 h timepoints. As for the experimental part: B. longum rBSH. Recombinant BSH from B. longum SBT2928 was expressed and purified as above, except 0.25 mM IPTG was used for protein expression and 1 mM TCEP for protein purification.
Inhibitor Screen Using rBSHs.

For another data set, the system named is B. vulgatus. Put plainly: Inhibitor screen in bacteria, B. vulgatus culture. It is filed as cell-based, Bacteroides vulgatus ATCC 8482. The conditions noted are these: FIG. 2c, 100 μM inhibitor, 100 μM bile acid pool, 21 h, replicates 1-3. As for the experimental part: (§1) Bacterial Culturing. All bacterial strains were cultured at 37° C. in Cullen-Haiser Gut (CHG) media (which consists of brain heart infusion media (Bacto™ BHI, BD) supplemented with 1% BBL vitamin K1-hemin solution (BD), 1% trace minerals solution (ATCC), 1% trace vitamins solution (ATCC), 5% fetal bovine serum (Hyclone), 1 g/L cellubiose, 1 g/L maltose, and 1 g/L fructose) or BHI^+ (Bacto™ BHI, BD, supplemented with 5 mg/L hemin, and 2.5 uL/L Vitamin K1). All strains were grown under anaerobic conditions in a anaerobic chamber (Coy Lab Products Airlock) with a gas mix of 5% hydrogen and 20% carbon dioxide nitrogen. Escherichia coli was grown aerobically at 37° C. in LB medium supplemented with ampicillin to select for the pET21b plasmid.
(§2) Inhibitor Screen in Bacteria. Bacterial cultures were diluted to OD600 of 0.1 in 4 mL BHI^+, containing 100 μM taurine conjugated bile acid pool 100 μM inhibitors. […] After 21 h, serial dilutions were plated on BHI^+ agar to determine cell viability (CFU/mL). […] The cultures were spun down in a centrifuge at 2,500 g for 5 mins to obtain better separation. The organic layer was then removed and the aqueous layer was extracted again using 2 mL of ethyl acetate.

For a further data set, the target named is B. theta BSH (Bacteroides thetaiotaomicron, UniProt Q8A600). Put plainly: Inhibitor screen using rBSH, B. theta BSH (UPLC-MS % deconjugation). Conditions: 100 μM inhibitor, 30 min preincubation, monitored over 21 hours.
For another data set, the system named is B. theta. Put plainly: Inhibitor screen in bacteria, B. theta culture. Conditions: FIG. 2c, 100 μM inhibitor, 21 h, replicates 1-3. It counts as cell-based, Bacteroides thetaiotaomicron VPI-5482. As for the experimental part:
as §1, §2

Data set [1] has as its system three Gram negative and three Gram positive strains of human gut bacteria. Put plainly: BSH inhibition in growing cultures of six gut bacterial strains (overall statements). It is filed as cell-based. Conditions: 100 μM inhibitor, 100 μM conjugated bile acid mixture.
The test system is the same in data set [2]. Put plainly: Growth (OD600) and cell viability (CFU/mL) of the six gut bacterial strains. Conditions: 100 μM inhibitor.
The subject of the next data set is C. perfingens. It counts as cell-based, Clostridium perfringens ATCC 13124. The conditions noted are these: FIG. 2c, C. perfingens culture; 100 μM inhibitor, 100 μM bile acid pool, 21 h; replicates 1-3.
Data set [3] has as its system BSH activity in conventional mouse feces. The data set is described as follows: Screen of inhibitors in conventional mouse feces. It counts as biochemical. As for the experimental part:
Screen of Inhibitors in Conventional Mouse Feces. […] The tubes were then frozen in dry ice for 5 mins and upon thawing were diluted with an equal volume of methanol. […] The supernatant was removed into a clean eppendorf tube and centrifuged again. […] The concentration of product detected from these assays was reported directly.

The next data set has as its system L. plantarum. The data set is described as follows: Inhibitor screen in bacteria, L. plantarum culture. It counts as cell-based, Lactobacillus plantarum WCFS1.
The subject of another data set is B. fragilis. The data set is described as follows: Inhibitor screen in bacteria, B. fragilis culture. The conditions noted are these: FIG. 2c, 100 μM inhibitor, 100 μM bile acid pool, 21 h, replicates 1-3. It is filed as cell-based, Bacteroides fragilis ATCC 25285. As to the method:
as §1, §2

Another data set concerns B. adolescentis. Put plainly: Inhibitor screen in bacteria, B. adolescentis culture. It is filed as cell-based, Bifidobacterium adolescentis L2-32. The conditions noted are these: FIG. 2c, 100 μM inhibitor, 100 μM bile acid pool, 21 h, replicates 1-3.
The test system of the next data set is B. theta BSH KO strain. Put plainly: Incubation with BSH-deleted B. theta strain. Conditions: 100 μM inhibitor.
Substrate in data set [4]: C[C@H](CCC(=O)NCCS(=O)(=O)O)[C@H]1CC[C@H]2[C@@H]3[C@@H](O)C[C@@H]4C[C@H](O)CC[C@]4(C)[C@H]3CC[C@]12C
Put plainly: purified protein, by the assay type.

Substrate in data set [5]: C[C@H](CCC(=O)NCCS(=O)(=O)O)[C@H]1CC[C@H]2[C@@H]3CC[C@@H]4C[C@H](O)CC[C@]4(C)[C@H]3C[C@H](O)[C@]12C
The data set is described as follows: purified protein, by the assay type.

Substrate in data set [6]: C[C@H](CCC(=O)NCCS(=O)(=O)O)[C@H]1CC[C@H]2[C@@H]3[C@H](O)C[C@@H]4C[C@H](O)CC[C@]4(C)[C@H]3C[C@H](O)[C@]12C
Put plainly: purified protein, by the assay type. The conditions noted are these: other: Table 3; substrate of B. longum BSH; mean ± SEM, n = 3; pH 7.5; 37.0 °C.

Setting [7] is: FIG. 2c, L. plantarum culture, 100 μM inhibitor, 100 μM bile acid pool, 21 h, replicates 1-3.
Setting [8] is: other: Table 1, substrate of B. longum BSH, PBS pH 7.5, 37° C.
The mark [9] stands for this setting: other: Table 3, substrate of B. longum BSH, mean ± SEM, n = 3, pH 7.5, 37.0 °C.

As to `O=C(/C=C/c1ccc(O)c(O)c1)OCCc1ccccc1` [CAPE, caffeic acid phenethyl ester, reference compound], the “inhibition of B. longum BSH (in words)” value on B. longum BSH is on record as “ineffective”. For the same molecule, the “% deconjugation of TCA” value in the data set with B. vulgatus is 1.46% and 1.06% and 0.00%; in the data set on B. theta (100 μM taurine conjugated bile acid pool) it was 0.42% and 0.72% and 0.52%; in the data set with C. perfingens it was 100.00%; with L. plantarum (setting [7]), 10.67% and 33.19% and 53.29%; with B. fragilis, 88.33% and 85.35% and 84.93%; with B. adolescentis it was 100.00%. Besides, the “% deconjugation of TDCA” value in the data set on B. vulgatus is 5.47% and 3.03% and 1.28%; in the data set with B. theta (100 μM bile acid pool), 2.06% and 0.90% and 0.81%; in the data set with C. perfingens, 99.71% and 99.30% and 99.38%; in the data set with L. plantarum (setting [7]), 47.57% and 82.98% and 93.57%; in the data set with B. fragilis, 98.95% and 98.93% and 99.13%; in the data set on B. adolescentis, 99.85% and 100.00% and 99.71%. Besides, the “% deconjugation of TUDCA” value with B. vulgatus was 82.37% and 94.25% and 87.91%; in the data set with B. theta (100 μM bile acid pool), 2.31% and 5.36% and 2.32%; in the data set on C. perfingens, 98.92% and 98.62% and 98.71%; in the data set on L. plantarum (setting [7]), 6.80% and 1.73% and 3.54%; in the data set on B. fragilis, 98.66% and 98.65% and 99.13%; in the data set with B. adolescentis it was 99.43% (2×) and 100.00%. In addition, the “% deconjugation of TβMCA” value in the data set on B. vulgatus is 88.92% and 78.15% and 71.86%; in the data set with B. theta (100 μM bile acid pool) it was 0.64% and 0.28% and 0.16%; in the data set with C. perfingens, 100.00%; with L. plantarum (setting [7]), 0.06% and 0.59% and 0.95%; with B. fragilis it was 98.64% and 98.42% and 99.12%; in the data set with B. adolescentis, 100.00%. For the same molecule, the “inhibition of B. theta BSH (in words)” value against B. theta BSH was “only moderate inhibition”. Besides, in [1], the “deconjugation / BSH inhibition in cultures of the six bacterial strains (in words)” value was “no inhibition of deconjugation was observed over the course of 21 hours in five out of the six bacterial strains; also recorded: neither riboflavin nor CAPE displayed significant inhibitory activity against any of the Gram negative strains; also recorded: No BSH inhibition in five out of the six bacterial strains”. Moreover, the “effect on bacterial cell viability (CFU/mL, plated at 21 h)” value in data set [2] is “decreased the cell viability of the Gram negative strains tested; also recorded: inhibited the cell viability of all three Gram negative bacterial strains tested”. In data set [2], the “effect on bacterial growth (OD600 at 24 hours)” value is reported as “inhibited the growth of the Gram positive strains tested; also recorded: inhibited the growth of all three Gram negative bacterial strains tested; also recorded: significantly inhibits the growth of the strains of Gram negative gut bacteria tested”. In addition, the “BSH activity in resuspended conventional mouse feces (in words)” value in data set [3] (20 μM inhibitor, 30 min, then GCDCA-d4 100 μM, 18 hours) is reported as “minimal inhibitory activity; also recorded: no inhibition of BSH activity in feces”. Further, the “deconjugation in resuspended mouse feces (in words)” value in data set [3] (either 20 μM or 100 μM) is recorded as “did not noticeably reduce deconjugation”. In addition, in the data set with L. plantarum (100 μM CAPE), the “inhibition of deconjugation in L. plantarum (in words)” value was “inhibit deconjugation in L. plantarum”. Further, the “bactericidal effect on BSH-deleted B. theta (CFUs after 24 h)” value with B. theta BSH KO strain was “significantly affect the growth”.

B1: B. longum BSH (Bifidobacterium longum) (protein)
chain: T1 sequence (Q9KK62 1-317)
The term Km denotes the substrate concentration at which the rate is half of its maximum. What is called kcat is the maximal rate divided by the concentration of active sites. As a reminder, the kcat/Km is the second-order rate constant that governs catalysis at low substrate concentration. Take B1: the Km came out at 4.14 mM in data set [4] (setting [8]); 4.1 ± 2.5 mM in data set [4] (setting [9]); 2.28 mM in data set [5] (setting [8]); 2.3 ± 0.3 mM in [5] (setting [9]); 8.3 ± 2.5 mM in data set [6]. Also, the catalytic constant (kcat) in data set [6] came out at 0.115 s⁻¹. In data set [6], the kcat/Km is 13.3 M⁻¹ s⁻¹.

The values above are taken from US12577273B2, “Small molecule modulators of gut bacterial bile acid metabolism” (priority 2019, dated 2026).
